Results on 2 compounds are retold here after patent US20240327364A1, “THERAPEUTIC TARGETING OF GPR68 TO INDUCE FERROPTOSIS” (University Of Maryland, Baltimore, priority 2023, published 2024).

Each structure is given as a SMILES string.

The target of one assay is T1, MARK3 (Homo sapiens, UniProt P27448).
T1 construct: purchased DiscoveRx (Fremont, CA)
As to the kind of experiment: KinomeScan. In kind it is binding. The following applies: read-out: % Control.

The next assay concerns the target T2, FLT3(D835H) (Homo sapiens, UniProt P36888, D835H).
T2 construct: purchased DiscoveRx (Fremont, CA)
As to the kind of experiment: KinomeScan. In kind it is binding. The following applies: read-out: % Control.

The target in the next assay is T3, RAF1 (Homo sapiens, UniProt P04049).
T3 construct: purchased DiscoveRx (Fremont, CA)
Briefly: KinomeScan. Type of assay: binding. The conditions noted are these: read-out: % Control.

In another assay the target is T4, MAP3K2 (Homo sapiens, UniProt Q9Y2U5).
T4 construct: purchased DiscoveRx (Fremont, CA)
As to the kind of experiment: KinomeScan. In kind it is binding. The following applies: read-out: % Control.

In the next assay the target is T5, MYLK4 (Homo sapiens, UniProt Q86YV6).
T5 construct: purchased DiscoveRx
As to the kind of experiment: KinomeScan. In kind it is binding. The following applies: read-out: % Control.

A further assay addresses T6, QSK (Homo sapiens, UniProt Q9Y2K2).
T6 construct: purchased DiscoveRx (Fremont, CA)
Briefly: KinomeScan. Type of assay: binding. The conditions noted are these: read-out: % Control.

The target of the next assay is T7, CDK2 (Homo sapiens, UniProt P24941).
T7 construct: purchased DiscoveRx (KinomeScan service)
As to the kind of experiment: KinomeScan. Type of assay: binding. The conditions noted are these: read-out: % Control.

The next assay addresses T8, MRGX1 (Homo sapiens, UniProt Q96LB2).
T8 construct: host or cells: Chem-1 cells expressing Gα15
As to the kind of experiment: GPCR Profiler. In kind it is cell-based.

For another assay, the target named is T9, M5 (Homo sapiens, UniProt P08912).
T9 construct: host or cells: Chem-1 cells with promiscuous Gα15
As to the kind of experiment: GPCR Profiler. In kind it is cell-based.

Another assay has as its target CSF1R (Homo sapiens, UniProt P07333). Briefly: KinomeScan. The following applies: read-out: % Control. Type of assay: binding.
Another assay deals with T10, NEK7 (Homo sapiens, UniProt Q8TDX7).
T10 construct: purchased DiscoveRx
As to the kind of experiment: KinomeScan. In kind it is binding. The following applies: read-out: % Control.

A further assay has as its target T11, SGK3 (Homo sapiens, UniProt Q96BR1).
T11 construct: purchased DiscoveRx (Fremont, CA)
As to the kind of experiment: KinomeScan. Type of assay: binding. The following applies: read-out: % Control.

The target in another assay is T12, MLK3 (Homo sapiens, UniProt Q16584).
T12 construct: purchased DiscoveRx
As to the kind of experiment: KinomeScan. In kind it is binding. The following applies: read-out: % Control.

In another assay the test system is MeWo. As to the kind of experiment: Scratch assay. The conditions noted are these: 20 hours, OGM2 5 uM. In kind it is cell-based, human. The method, then:
(§1) Since there are numerous parallels are found between neural crest cells and cancer during migration, we examined whether OGM could inhibit the migration of cells in human melanoma cell lines (Oppitz et al., 2007; Schriek et al., 2005, Sinnberg et al., 2018). […] A2058. MeWo and WM115 cells were grown to confluence and a stripe of cells were denuded with a p200 pipette tip “scratch” and rinsed with PBS. Cells were treated with OGM or DMSO and incubated in low serum media. Imaging was done at 30 minutes after “scratch” and then 20 hours afterwards. Areas were then measured and normalized to the initial area.

The test system of the next assay is WM115. As to the kind of experiment: Scratch assay. In kind it is cell-based, human. The following applies: 20 hours, OGM2 5 uM. The method, then:
as §1

The target of a further assay is GPR68 (Homo sapiens, UniProt Q15743). Briefly: SRE-luciferase assay, GPR68-transfected HEK293 cells. The conditions noted are these: 10 μM OGM2. In kind it is cell-based. The method, then:
12-well plates of cells were transfected with 1 μg DNA using Lipofectamine 3000 with sre:luciferase and either the vector backbone, GFP, GPR68, GPR68-GFP, GPR4, or 336X-GFP. After 3 days, these cells were then lysed, and cell extracts were subjected to Steady-Glo luciferase assay (Promega™) according to the manufacturer's instructions. The results were normalized to cell titer, as determined using Cell Titer-Glo luminescence assay (Promega™). For some procedure, the cells were treated in serum-free medium, and were lysed on the third day.
Because GPR4, the paralog with highest homology with GPR68, was not covered in the initial GPCR profiling, whether OGM2 could inhibit GPR4 was tested by examining the effects of OGM2 on acid-induced serum responsive element (SRE) luciferase activity in HEK293 cells transfected with either GPR4 or GPR68. Mild acidification increased luciferase activity in GPR4 and GPR68 transfected cells above that of vector control.
Cas9^GPR68=GPR68 targeted sgRNA and Cas9; CTL=control; MoGPR68=GPR68 morpholino treatment. […] These cells were exposed to acidic media and assayed for luciferase activity as a readout of the receptor activity.

A further assay relates to A549. As to the kind of experiment: Clonogenicity (crystal violet). Type of assay: cell-based. The following applies: 8 days. As to the method:
A549 lung cancer cells were plated at 300 cells per well in a 6-well plate and on the next day were treated with increasing concentrations of OGM2 for 8 days. The plate was fixed with formalin and stained with crystal violet. See FIG. 27B for results at the indicated concentrations.

The test system of a further assay is HEK293. As to the kind of experiment: Liperfluo lipid peroxidation, HEK293. Type of assay: cell-based, human. The method, then:
Cells were plated on a 100 mm cell culture dish (CELLTREAT Scientific Products) in 10 mls of DMEM with high glucose, GlutaMAX, HEPES, Penicillin-Streptomycin (ThermoFisher™) and 10% FBS. Cells were incubated overnight at 37° C. in 5% CO2. Media were then replaced with […] fresh media with DMSO, OGM2, or Erastin (APExBIO Technology™) and the cells incubated for 3 days. On the third day, 3 mL fresh media with 2.5 μM Liperfluo™ (Dojindo Molecular Technologies™, Inc.) resuspended in DMSO was added and cells were incubated at 37° C. in 5% CO2 for 1 hour. Cells were subsequently trypsinized for 5 minutes, pelleted by centrifugation, and resuspended in cell sorting media (1% BSA and 1 mM EDTA in PBS pH 7.4). Ten thousand events were recorded on a BD LSR II and the data processed using the FlowJo™ software.

The test system of a further assay is HKSA-induced ALI. Briefly: HKSA-induced acute lung injury. Type of assay: in vivo, C57Bl mice. The conditions noted are these: OGM2 40 mg/kg. The method, then:
FIG. 37A through FIG. 37D: OGM2 attenuates HKSA- and LPS-induced acute lung injury (ALI) in vivo. FIG. 37A: GPR68 mRNA is markedly elevated in lungs, heart and brain of HKSA-challenged (5×10^7/kg, i/n, 18 hr) C57Bl mice). FIG. 37B: LPS (0.7 mg/kg intratracheal) and […] ALI in mice markedly increases mRNA expression of GPR68, relative to GPR4, GPR65, and GPR132; *p<0.01 vs. vehicle; n=3.

T8 sequence (Q96LB2 whole entry, species assumed): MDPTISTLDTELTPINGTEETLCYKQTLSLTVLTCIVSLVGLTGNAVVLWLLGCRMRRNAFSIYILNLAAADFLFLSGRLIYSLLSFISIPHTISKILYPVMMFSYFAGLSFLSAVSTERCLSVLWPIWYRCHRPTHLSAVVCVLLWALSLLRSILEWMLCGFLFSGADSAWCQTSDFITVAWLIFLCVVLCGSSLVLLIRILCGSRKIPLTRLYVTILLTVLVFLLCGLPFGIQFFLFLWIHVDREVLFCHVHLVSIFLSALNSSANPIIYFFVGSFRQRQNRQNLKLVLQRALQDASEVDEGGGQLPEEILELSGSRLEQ
T9 sequence (P08912 whole entry): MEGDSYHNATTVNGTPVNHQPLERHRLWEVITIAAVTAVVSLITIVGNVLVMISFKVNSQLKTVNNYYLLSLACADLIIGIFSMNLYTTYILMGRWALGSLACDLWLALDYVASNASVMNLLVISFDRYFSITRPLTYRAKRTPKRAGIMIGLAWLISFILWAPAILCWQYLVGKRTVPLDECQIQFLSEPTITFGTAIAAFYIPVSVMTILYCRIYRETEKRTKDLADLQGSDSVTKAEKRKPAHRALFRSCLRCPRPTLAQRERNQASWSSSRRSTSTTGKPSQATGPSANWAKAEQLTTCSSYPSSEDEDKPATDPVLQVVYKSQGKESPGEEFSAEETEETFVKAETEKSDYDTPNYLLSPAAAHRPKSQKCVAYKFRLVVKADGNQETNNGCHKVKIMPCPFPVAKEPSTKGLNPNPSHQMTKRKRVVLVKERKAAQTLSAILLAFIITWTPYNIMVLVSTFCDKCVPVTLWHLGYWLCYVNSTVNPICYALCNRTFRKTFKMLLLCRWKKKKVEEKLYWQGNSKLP
T5 sequence (Q86YV6 whole entry): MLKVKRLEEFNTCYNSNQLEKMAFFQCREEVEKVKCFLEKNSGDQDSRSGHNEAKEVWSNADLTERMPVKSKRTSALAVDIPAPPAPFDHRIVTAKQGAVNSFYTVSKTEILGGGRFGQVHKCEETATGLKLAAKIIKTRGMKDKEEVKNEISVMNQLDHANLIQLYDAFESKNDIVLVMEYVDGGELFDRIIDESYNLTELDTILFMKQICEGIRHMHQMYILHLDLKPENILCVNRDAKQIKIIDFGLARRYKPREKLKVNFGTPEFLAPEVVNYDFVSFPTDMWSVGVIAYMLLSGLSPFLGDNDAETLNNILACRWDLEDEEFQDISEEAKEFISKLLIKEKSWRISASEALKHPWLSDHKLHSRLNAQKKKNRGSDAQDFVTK
T3 sequence (P04049 whole entry): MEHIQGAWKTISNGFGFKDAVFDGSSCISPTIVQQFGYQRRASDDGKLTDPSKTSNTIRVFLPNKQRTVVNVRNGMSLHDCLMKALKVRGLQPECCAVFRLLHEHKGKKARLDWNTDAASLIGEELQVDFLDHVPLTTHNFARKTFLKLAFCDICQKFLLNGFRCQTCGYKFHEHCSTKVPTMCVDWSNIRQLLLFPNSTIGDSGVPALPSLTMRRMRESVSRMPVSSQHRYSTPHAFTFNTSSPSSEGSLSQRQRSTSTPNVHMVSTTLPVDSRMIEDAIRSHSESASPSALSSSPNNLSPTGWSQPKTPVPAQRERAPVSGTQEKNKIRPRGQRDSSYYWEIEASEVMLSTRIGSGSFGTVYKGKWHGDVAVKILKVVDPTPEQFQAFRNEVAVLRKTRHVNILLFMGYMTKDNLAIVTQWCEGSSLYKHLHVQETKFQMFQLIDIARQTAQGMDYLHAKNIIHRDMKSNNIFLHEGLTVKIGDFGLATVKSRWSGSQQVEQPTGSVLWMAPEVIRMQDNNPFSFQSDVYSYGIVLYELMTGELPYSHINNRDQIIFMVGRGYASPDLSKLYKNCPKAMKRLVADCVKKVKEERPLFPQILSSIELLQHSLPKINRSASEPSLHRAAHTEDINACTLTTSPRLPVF
T12 sequence (Q16584 whole entry): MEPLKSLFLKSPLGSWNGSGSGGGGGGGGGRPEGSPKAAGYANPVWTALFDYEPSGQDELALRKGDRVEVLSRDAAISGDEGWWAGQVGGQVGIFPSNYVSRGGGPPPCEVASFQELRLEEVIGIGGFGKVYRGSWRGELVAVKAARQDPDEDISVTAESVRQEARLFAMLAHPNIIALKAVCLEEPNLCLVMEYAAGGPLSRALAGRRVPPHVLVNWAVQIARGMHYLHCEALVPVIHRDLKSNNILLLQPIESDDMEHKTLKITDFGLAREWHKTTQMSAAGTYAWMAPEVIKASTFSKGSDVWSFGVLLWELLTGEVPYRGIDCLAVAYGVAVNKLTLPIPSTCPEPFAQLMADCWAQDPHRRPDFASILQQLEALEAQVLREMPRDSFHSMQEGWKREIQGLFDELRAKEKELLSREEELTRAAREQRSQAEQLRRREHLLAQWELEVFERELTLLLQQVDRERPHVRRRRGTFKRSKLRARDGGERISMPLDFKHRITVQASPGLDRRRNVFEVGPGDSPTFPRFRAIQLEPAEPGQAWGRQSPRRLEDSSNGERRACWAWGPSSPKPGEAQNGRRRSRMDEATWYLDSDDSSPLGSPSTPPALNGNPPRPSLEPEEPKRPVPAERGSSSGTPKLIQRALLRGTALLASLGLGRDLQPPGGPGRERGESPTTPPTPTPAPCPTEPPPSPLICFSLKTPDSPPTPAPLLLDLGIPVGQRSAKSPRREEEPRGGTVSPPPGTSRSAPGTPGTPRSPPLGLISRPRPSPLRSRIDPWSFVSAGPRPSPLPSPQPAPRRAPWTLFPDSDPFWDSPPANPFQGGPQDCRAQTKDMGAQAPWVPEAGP
T11 sequence (Q96BR1 whole entry): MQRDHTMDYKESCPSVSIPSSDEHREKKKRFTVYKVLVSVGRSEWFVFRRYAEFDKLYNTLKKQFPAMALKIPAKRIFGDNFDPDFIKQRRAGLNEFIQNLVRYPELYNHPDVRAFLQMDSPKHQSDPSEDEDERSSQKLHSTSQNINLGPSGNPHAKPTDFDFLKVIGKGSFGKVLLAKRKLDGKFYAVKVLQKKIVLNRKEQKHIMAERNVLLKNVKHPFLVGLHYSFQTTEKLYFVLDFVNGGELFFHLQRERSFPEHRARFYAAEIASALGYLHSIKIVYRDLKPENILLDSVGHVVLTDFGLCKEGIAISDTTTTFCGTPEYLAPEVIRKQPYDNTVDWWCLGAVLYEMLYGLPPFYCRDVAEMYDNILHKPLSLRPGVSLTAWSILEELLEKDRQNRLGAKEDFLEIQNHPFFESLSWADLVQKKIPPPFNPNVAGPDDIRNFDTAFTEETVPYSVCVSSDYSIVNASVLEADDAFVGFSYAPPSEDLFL
T10 sequence (Q8TDX7 whole entry): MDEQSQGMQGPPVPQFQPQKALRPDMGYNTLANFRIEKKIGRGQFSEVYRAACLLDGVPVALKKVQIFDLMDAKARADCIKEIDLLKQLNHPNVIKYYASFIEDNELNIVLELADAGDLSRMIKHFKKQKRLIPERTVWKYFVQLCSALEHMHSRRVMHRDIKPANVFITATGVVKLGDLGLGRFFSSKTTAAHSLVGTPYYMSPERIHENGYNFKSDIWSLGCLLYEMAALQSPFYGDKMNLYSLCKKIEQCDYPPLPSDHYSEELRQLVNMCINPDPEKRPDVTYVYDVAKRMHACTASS
T6 sequence (Q9Y2K2 whole entry): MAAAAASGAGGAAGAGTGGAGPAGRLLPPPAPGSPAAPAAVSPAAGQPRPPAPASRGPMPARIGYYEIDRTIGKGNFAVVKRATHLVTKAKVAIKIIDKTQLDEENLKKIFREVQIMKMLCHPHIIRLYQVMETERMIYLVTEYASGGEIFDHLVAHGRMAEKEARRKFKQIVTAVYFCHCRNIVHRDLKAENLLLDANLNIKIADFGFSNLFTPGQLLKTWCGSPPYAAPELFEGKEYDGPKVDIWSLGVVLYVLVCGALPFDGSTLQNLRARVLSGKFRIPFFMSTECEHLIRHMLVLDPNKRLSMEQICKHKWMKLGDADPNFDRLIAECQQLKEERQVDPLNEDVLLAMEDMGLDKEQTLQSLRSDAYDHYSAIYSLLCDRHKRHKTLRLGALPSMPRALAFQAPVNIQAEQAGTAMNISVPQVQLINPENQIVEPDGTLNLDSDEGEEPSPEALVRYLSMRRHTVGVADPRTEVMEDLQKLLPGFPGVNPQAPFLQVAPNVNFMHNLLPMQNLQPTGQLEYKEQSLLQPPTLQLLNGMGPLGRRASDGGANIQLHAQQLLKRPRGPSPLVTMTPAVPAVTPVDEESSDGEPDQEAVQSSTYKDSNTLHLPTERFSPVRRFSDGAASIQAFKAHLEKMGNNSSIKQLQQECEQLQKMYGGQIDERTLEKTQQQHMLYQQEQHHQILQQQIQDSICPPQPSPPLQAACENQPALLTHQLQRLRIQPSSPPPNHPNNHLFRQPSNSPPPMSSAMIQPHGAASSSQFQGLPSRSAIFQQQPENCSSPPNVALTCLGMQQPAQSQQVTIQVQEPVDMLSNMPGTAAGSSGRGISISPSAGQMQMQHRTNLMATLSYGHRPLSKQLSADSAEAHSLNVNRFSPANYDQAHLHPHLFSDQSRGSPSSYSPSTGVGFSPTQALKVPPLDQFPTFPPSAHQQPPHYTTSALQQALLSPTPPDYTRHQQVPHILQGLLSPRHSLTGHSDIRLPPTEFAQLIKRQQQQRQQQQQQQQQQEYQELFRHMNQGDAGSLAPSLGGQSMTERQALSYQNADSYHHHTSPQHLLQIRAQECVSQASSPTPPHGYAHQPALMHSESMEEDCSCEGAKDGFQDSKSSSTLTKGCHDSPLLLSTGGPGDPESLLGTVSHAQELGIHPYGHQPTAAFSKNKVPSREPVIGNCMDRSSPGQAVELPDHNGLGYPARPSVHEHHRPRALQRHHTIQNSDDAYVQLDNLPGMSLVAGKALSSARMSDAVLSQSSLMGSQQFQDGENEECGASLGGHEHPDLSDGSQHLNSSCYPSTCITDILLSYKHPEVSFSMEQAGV

For the compound `CCc1ccc2c(c1)C1(NN=C(c3cccc4ccccc34)S1)C(=O)N2` (stereo not shown) [OGM1, 5-ethyl-5′-naphthalen-1-ylspiro[1H-indole-3,2′-3H-1,3,4-thiadiazole]-2-one], the remaining binding at 10 µM on MARK3 is 100%; at FLT3(D835H), 100%; on RAF1, 100%; at MAP3K2 it was 92%; on MYLK4, 98%; at QSK it was 100%. Moreover, the remaining binding at 10 µM on CDK2 was 100%; on CSF1R, 78%; on NEK7, 100%; on SGK3, 56%; at MLK3 it was 100%. The Antagonism on MRGX1 (10 uM) was determined as 2.3; at M5 (10 uM) it was 3.4. Also, the Agonism at MRGX1 (12.5 uM) is recorded as −0.1; on M5 (12.5 uM) it was −0.6.
As for `CCc1ccc2c(c1)C1(NN=C(c3ccccc3)S1)C(=O)N2` (stereo not shown) [OGM2], the migration result in the assay with MeWo and in the assay with WM115 was “inhibited migration” in each case. Besides, the “acid-induced SRE-luciferase activity” value on GPR68 is on record as “completely inhibited the signal”. Moreover, the clonogenicity entry with A549 was “reduced the clonogenicity of lung cancer cells”. Moreover, the lipid peroxidation result with HEK293 is listed as “did not induce lipid peroxidation”. In the assay with HKSA-induced ALI (3 hr post administration), the “lung vascular leak (Evans blue-labeled albumin)” value is “significantly attenuated”. Also, the “inflammatory cytokine (TNFα, IL-6, KC, IL-1β) transcripts in the lungs” value with HKSA-induced ALI (i.p.) is on record as “significantly attenuated induction”.
